Data taken from PubChem BioAssay (NCI).
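Cells were grown in 96-well plates and exposed to each compound for 48 hours at five concentrations; endpoints were interpolated linearly between bracketing concentrations, or set to the highest concentration if not reached. TGI denotes the concentration required for complete inhibition of growth.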

How the values were obtained:
Assay in all cases: NCI tumour cell line growth inhibition, 48 h
786-0 renal = system: 786-0 renal
A498 renal = system: A498 renal
A549 NSCLC = system: A549 NSCLC
ACHN renal = system: ACHN renal
BT-549 breast = system: BT-549 breast
CAKI-1 renal = system: CAKI-1 renal
COLO 205 colon = system: COLO 205 colon
EKVX NSCLC = system: EKVX NSCLC
HCC-2998 colon = system: HCC-2998 colon
HCT-116 colon = system: HCT-116 colon
HCT-15 colon = system: HCT-15 colon
HOP-62 NSCLC = system: HOP-62 NSCLC
HOP-92 NSCLC = system: HOP-92 NSCLC
HS 578T breast = system: HS 578T breast
HT29 colon = system: HT29 colon
IGROV1 ovarian = system: IGROV1 ovarian
K-562 leukemia = system: K-562 leukemia
KM12 colon = system: KM12 colon
LOX IMVI melanoma = system: LOX IMVI melanoma
M14 melanoma = system: M14 melanoma
MALME-3M melanoma = system: MALME-3M melanoma
MCF7 breast = system: MCF7 breast
MDA-MB-231 breast = system: MDA-MB-231 breast
MDA-N = system: MDA-N
NCI-H226 lung = system: NCI-H226 lung
NCI-H23 lung = system: NCI-H23 lung
NCI-H460 lung = system: NCI-H460 lung
NCI/ADR-RES ovarian = system: NCI/ADR-RES ovarian
OVCAR-3 ovarian = system: OVCAR-3 ovarian
OVCAR-4 ovarian = system: OVCAR-4 ovarian
OVCAR-5 ovarian = system: OVCAR-5 ovarian
OVCAR-8 ovarian = system: OVCAR-8 ovarian
PC-3 prostate = system: PC-3 prostate
RXF 393 renal = system: RXF 393 renal
SF-295 CNS = system: SF-295 CNS
SF-539 CNS = system: SF-539 CNS
SK-MEL-2 melanoma = system: SK-MEL-2 melanoma
SK-MEL-28 melanoma = system: SK-MEL-28 melanoma
SK-MEL-5 melanoma = system: SK-MEL-5 melanoma
SK-OV-3 ovarian = system: SK-OV-3 ovarian
SN12C renal = system: SN12C renal
SNB-19 CNS = system: SNB-19 CNS
SNB-75 CNS = system: SNB-75 CNS
SW-620 colon = system: SW-620 colon
TK-10 renal = system: TK-10 renal
U251 CNS = system: U251 CNS
UACC-257 melanoma = system: UACC-257 melanoma
UACC-62 melanoma = system: UACC-62 melanoma
UO-31 renal = system: UO-31 renal
CCRF-CEM leukemia = system: CCRF-CEM leukemia
DU-145 prostate = system: DU-145 prostate
HL-60(TB) leukemia = system: HL-60(TB) leukemia
MDA-MB-435 = system: MDA-MB-435
MOLT-4 leukemia = system: MOLT-4 leukemia
NCI-H522 lung = system: NCI-H522 lung
RPMI-8226 leukemia = system: RPMI-8226 leukemia
SF-268 CNS = system: SF-268 CNS
T-47D breast = system: T-47D breast

COC(=O)[C@@H]1[C@H](O)CCC2=C(CC(=O)c3ccoc3)[C@H](C)CC[C@]21C
TGI (786-0 renal): > 50 µM
TGI (A498 renal): > 50 µM
TGI (A549 NSCLC): > 50 µM
TGI (ACHN renal): > 50 µM
TGI (BT-549 breast): > 50 µM
TGI (CAKI-1 renal): > 50 µM
TGI (COLO 205 colon): > 50 µM
TGI (EKVX NSCLC): > 50 µM
TGI (HCC-2998 colon): > 50 µM
TGI (HCT-116 colon): > 50 µM
TGI (HCT-15 colon): > 50 µM
TGI (HOP-62 NSCLC): > 50 µM
TGI (HOP-92 NSCLC): > 50 µM
TGI (HS 578T breast): > 50 µM
TGI (HT29 colon): > 50 µM
TGI (IGROV1 ovarian): > 50 µM
TGI (K-562 leukemia): > 50 µM
TGI (KM12 colon): > 50 µM
TGI (LOX IMVI melanoma): > 50 µM
TGI (M14 melanoma): > 50 µM
TGI (MALME-3M melanoma): > 50 µM
TGI (MCF7 breast): > 50 µM
TGI (MDA-MB-231 breast): > 50 µM
TGI (MDA-N): > 50 µM
TGI (NCI-H226 lung): > 50 µM
TGI (NCI-H23 lung): > 50 µM
TGI (NCI-H460 lung): > 50 µM
TGI (NCI/ADR-RES ovarian): > 50 µM
TGI (OVCAR-3 ovarian): > 50 µM
TGI (OVCAR-4 ovarian): > 50 µM
TGI (OVCAR-5 ovarian): > 50 µM
TGI (OVCAR-8 ovarian): > 50 µM
TGI (PC-3 prostate): > 50 µM
TGI (RXF 393 renal): > 50 µM
TGI (SF-295 CNS): > 50 µM
TGI (SF-539 CNS): > 50 µM
TGI (SK-MEL-2 melanoma): > 50 µM
TGI (SK-MEL-28 melanoma): > 50 µM
TGI (SK-MEL-5 melanoma): > 50 µM
TGI (SK-OV-3 ovarian): > 50 µM
TGI (SN12C renal): > 50 µM
TGI (SNB-19 CNS): > 50 µM
TGI (SNB-75 CNS): > 50 µM
TGI (SW-620 colon): > 50 µM
TGI (TK-10 renal): > 50 µM
TGI (U251 CNS): > 50 µM
TGI (UACC-257 melanoma): > 50 µM
TGI (UACC-62 melanoma): > 50 µM
TGI (UO-31 renal): > 50 µM

O=C(O)CNc1ccc(Cl)c(Cl)c1
TGI (786-0 renal): 92.6 µM
TGI (A498 renal): 86.5 µM
TGI (A549 NSCLC): > 100 µM
TGI (ACHN renal): 53 µM
TGI (BT-549 breast): > 100 µM
TGI (CAKI-1 renal): 50.3 µM
TGI (CCRF-CEM leukemia): 84.8 µM
TGI (COLO 205 colon): 41.7 µM
TGI (DU-145 prostate): > 100 µM
TGI (EKVX NSCLC): 64.8 µM
TGI (HCT-116 colon): 44.7 µM
TGI (HCT-15 colon): 95.3 µM
TGI (HL-60(TB) leukemia): 78.5 µM
TGI (HOP-62 NSCLC): 86.1 µM
TGI (HOP-92 NSCLC): 51.6 µM
TGI (HS 578T breast): > 100 µM
TGI (HT29 colon): > 100 µM
TGI (IGROV1 ovarian): 26.3 µM
TGI (K-562 leukemia): 78.4 µM
TGI (KM12 colon): 55.1 µM
TGI (LOX IMVI melanoma): > 100 µM
TGI (M14 melanoma): > 100 µM
TGI (MCF7 breast): 38.7 µM
TGI (MDA-MB-231 breast): > 100 µM
TGI (MDA-MB-435): 79.2 µM
TGI (MDA-N): 73 µM
TGI (MOLT-4 leukemia): > 100 µM
TGI (NCI-H226 lung): > 100 µM
TGI (NCI-H23 lung): > 100 µM
TGI (NCI-H460 lung): 69.8 µM
TGI (NCI-H522 lung): 38 µM
TGI (NCI/ADR-RES ovarian): 84.6 µM
TGI (OVCAR-3 ovarian): 82.4 µM
TGI (OVCAR-4 ovarian): > 100 µM
TGI (OVCAR-5 ovarian): > 100 µM
TGI (OVCAR-8 ovarian): 85.4 µM
TGI (PC-3 prostate): 76 µM
TGI (RPMI-8226 leukemia): 55.2 µM
TGI (RXF 393 renal): > 100 µM
TGI (SF-268 CNS): > 100 µM
TGI (SF-295 CNS): 75.9 µM
TGI (SF-539 CNS): > 100 µM
TGI (SK-MEL-5 melanoma): 87.9 µM
TGI (SK-OV-3 ovarian): > 100 µM
TGI (SN12C renal): 94.3 µM
TGI (SNB-19 CNS): > 100 µM
TGI (SNB-75 CNS): 94.1 µM
TGI (SW-620 colon): 73.9 µM
TGI (T-47D breast): > 100 µM
TGI (TK-10 renal): 58.7 µM
TGI (U251 CNS): > 100 µM
TGI (UACC-257 melanoma): 96.3 µM
TGI (UACC-62 melanoma): 90.4 µM
TGI (UO-31 renal): 71.1 µM
